# Patent publication US20230203142A1, “TREATMENT OF METABOLIC DISORDERS THROUGH THE TARGETING OF A NOVEL CIRCULATING HORMONE COMPLEX” (The President and Fellows of Harvard College, priority 2020, published 2023)
# Tests used:
# INS1 cells [1] = test: Glucose-stimulated insulin secretion (GSIS), INS1 cells; type: cell-based, rat
# Experimental: This finding was recapitulated in both primary human islets from multiple non-diabetic donors (FIG. 6B), as well as INS1 cells (FIG. 6C). Human islets from review board approved healthy donors were isolated using the Edmonton protocol and provided by the IsletCore and Clinical Islet Laboratory (University of Alberta, Canada). Donors with a BMI<25 and HbA1c<6.0% were used for experiments. Islets were hand-picked three times and cultured at 37° C. in RPMI media with 10% FBS and 1% Penicillin/Streptomycin overnight before use. For INS1 cells, cells were plated at 8000 cells/well in 96-well plates and incubated overnight prior to experimentation. Insulin secretion assay was performed as above using 200 μl/well for each treatment. Cells were lysed using 80 μl ultrapure water and flash freezing. For siRNA experiments, INS1 cells were allowed to reach confluency before transfection of siRNA (Horizon Discovery; L-090381-02-0005) using Lipofectamine 3000 (Thermo Fischer; L3000015) according to manufacturer protocol for 48 hours prior to assays.
# As additional controls, it was explored whether lipid binding was required for FABP4 action. […] FABP4 inhibitor studies were performed using BMS-309403 (10 nM; Sigma #BM0015).
# To further elucidate the role of purinergic receptors in this signaling process, a potent and selective P2Y1 inhibitor, MRS2179 (Baurand et al., 2001) was utilized. Cells were pre-treated for P2Y1 inhibitor (100 nM; MRS2179, Tocris #0900) during the pre-incubation period.
# To confirm activity of this inhibitor, INS1 cells were treated with increasing concentrations of ADP in the presence or absence of MRS2179. […] This supports the hypothesis that the ADP produced by the NDPK-ADK complex signals through the P2Y1 receptor, treatment of INS1 cells with MRS2179 abolished the increase in GSIS associated with addition of NDPK-ADK, with no effect in the presence of NDPK-ADK/FABP4, consistent with the receptor being inhibited by ATP under these conditions (FIG. 6L). […] Treatment of primary mouse islets with H118N NDPK and WT ADK had no effect on GSIS, confirming the requirement of NDPK kinase activity for the biology (FIG. 6N). Additionally, it was modeled that the inhibitory effect of the NDPK-ADK/FABP4 complex on GSIS is dependent on the production of ATP by ADK, as activated by the presence of FABP4. To test this, an ADK inhibitor was utilized. Cells were pre-treated with ADK inhibitor (2 nM; Santa Cruz #sc-202900) during the pre-incubation period.
# INS1 cells [2] = test: Cytosolic calcium flux, Fura-2 AM imaging; details: 20 mM glucose
# Experimental: Cells were pre-treated with P2Y1 activator (0.5 nM; MRS2365 Tocris #2157) during the pre-incubation period. Cells were stimulated with ATP (5 μM; Promega #V915A) or ADP (2.5 μM; Promega #V916A) acutely with the addition of LG and HG KRB during the serial stimulation. Cells were treated with 100 ng/ml recombinant human FABP4 (produced in-house), 200 ng/ml recombinant human ADK (Novus Biologicals, product number NBP1-44382 or R&D Systems, product number 8024-AK-025), or 100 ng/ml recombinant human NDPK-A (Acro Biosystems, product number NM1-H5147) where indicated, for the pre-incubation period, as well as during the glucose stimulation.
# Briefly, INS1 cells were plated in imaging disks at 5000 cells/dish and cultured in standard media overnight. Cells were washed with PBS, and incubated in imaging buffer without glucose, with or without calcium containing Fura-2 AM (2 mM; ThermoFisher F1201) for 30 minutes at 37° C. Cells were washed twice with fresh PBS, and placed in lml imaging buffer. Calcium flux was evaluated with the addition of 20 mM glucose, 30 mM KCl, or 1 μM Thapsigargin. Extracellular calcium was added at 1.5 mM. Calcium flux measurements were performed using an epifluorescence system coupled to a Ti-S/L100 inverted microscope L100 with fluorescent light source (X-Cite 120LED System) equipped with Lambda DG-4 Plus for UV ratiometric probes. Excitations at 340 nm and 380 nm were used and an emission of 510 nm. Analysis was performed using ImageJ software. Calcium flux was measured from 50 cells per coverslip.
# CA33 (a-Ab) = test: MST epitope mapping: nested NDPK-A peptides with a-Ab; type: binding
# Experimental: To define the binding site of a-Ab on NDPK, a nested series of peptides were generated covering human NDPK-A and interaction of each peptide with a-Ab was evaluated by Microscale Thermophoresis (MST) (FIG. 4D). MST is a technology for the interaction analysis of biomolecules. MST is the directed movement of particles in a microscopic temperature gradient. Any change of the hydration shell of biomolecules due to changes in their structure/conformation results in a relative change of the movement along the temperature gradient and is used to determine binding affinities. MST allows measurement of interactions directly in solution without the need of immobilization to a surface (immobilization-free technology).
# recombinant NDPK = molecular target: T1, recombinant NDPK (Homo sapiens, UniProt P15531, H118N); test: Recombinant kinase activity assay, NDPK (ADP-Glo/Kinase-Glo); type: biochemical; details: kinase activity of NDPK mutant
# T1 construct: purchased Acro Biosystems NM1-H5147
# T1 sequence (P15531 whole entry H118N): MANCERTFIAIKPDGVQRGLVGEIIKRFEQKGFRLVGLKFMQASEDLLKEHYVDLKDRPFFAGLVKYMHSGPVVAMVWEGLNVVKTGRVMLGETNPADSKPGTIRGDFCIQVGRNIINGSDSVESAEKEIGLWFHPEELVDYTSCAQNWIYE
# Experimental: (§1) An on-bead kinase assay was developed to measure the activity of endogenous NDPK and ADK pulled down from serum using a-Ab or c-Ab conjugated beads. Both NDPK and ADK are bi-directional kinases that will produce ATP or ADP depending on the substrates provided (FIGS. 4B-C). Kinase activity assays were performed in 384-well plates in reaction buffer (PBS with 0.1% BSA, 0.01% F-127, 5 mM MgCl2). Experiments with recombinant proteins were performed at final concentrations of 40 μg/ml for ADK and FABP4, and 20 ug/ml for NDPK, and a reaction volume of 10 μl. Antibodies were used at a final concentration of 80 ug/ml. […] Proteins and substrates were incubated for 1 hr at room temperature, and ADP and ATP production were monitored using ADP-Glo and Kinase-Glo kits, respectively, according the manufacturer instructions (V6930 and V6711 Promega, USA). Luminescence was quantified using a SpectraMax Paradigm plate reader 30 min after the addition of substrate. Consistent with the MS results, ADK activity, as measured by generation of ATP, was specifically observed in samples pulled down with a-Ab but not c-Ab (FIG. 5A). […] To test this possibility, the ATP and ADP generating activity of recombinant ADK was assessed in the presence of the proposed complex components.
# primary mouse islets = test: Glucose-stimulated insulin secretion (GSIS), mouse islets; type: cell-based; details: primary / WT mouse islets
# Experimental: Primary islet isolation from mice was performed as previously described (Batchuluun et al., 2018; Prentice et al., 2014) and GSIS was assessed following acute treatment with NDPK-ADK in the presence or absence of FABP4. Insulin secretion assays were performed as previously described (Prentice et al., 2014). For primary islets, 20 islets were hand-picked into 1.5 ml tubes, washed twice with Krebs Ringer Buffer (KRB) without glucose, and pre-incubated in 500 μl low glucose (LG; 2.8 mM) KRB for 1 hour at 37° C. KRB was then removed and 250 μl of fresh LG KRB added. Islets were incubated for 20 minutes at 37° C. Supernatant was collected and 250 μl high glucose (HG; 16.7 mM) KRB added. Islets were incubated for 20 minutes at 37° C. In conditions where KCl was used, HG KRB was collected, and 250 μl KC1 (16.7 mM glucose, 30 mM KCl) KRB added. Islets were incubated for 20 minutes at 37° C., and supernatant collected. Following the stimulation protocol, cells were lysed in 100 μl acid ethanol (70% ethanol, 1% HCl in water) and stored at 4° C. overnight. Samples were evaporated using a SpeedVac until dried, and resuspended in 60 μl ultrapure water. DNA was quantified by Nanodrop (ThermoFisher, USA). Insulin from supernatant was quantified using insulin HTRF (Insulin Ultrasensitive Assay kit 62IN2PEH; Cisbio, USA).
# recombinant ADK = molecular target: T2, recombinant ADK (Homo sapiens, UniProt P55263); test: Recombinant kinase activity assay, ADK (Kinase-Glo); type: biochemical; details: recombinant ADK plus the added component
# T2 construct: purchased Novus Biologicals or R&D Systems NBP1-44382 or 8024-AK-025
# T2 sequence (P55263 whole entry): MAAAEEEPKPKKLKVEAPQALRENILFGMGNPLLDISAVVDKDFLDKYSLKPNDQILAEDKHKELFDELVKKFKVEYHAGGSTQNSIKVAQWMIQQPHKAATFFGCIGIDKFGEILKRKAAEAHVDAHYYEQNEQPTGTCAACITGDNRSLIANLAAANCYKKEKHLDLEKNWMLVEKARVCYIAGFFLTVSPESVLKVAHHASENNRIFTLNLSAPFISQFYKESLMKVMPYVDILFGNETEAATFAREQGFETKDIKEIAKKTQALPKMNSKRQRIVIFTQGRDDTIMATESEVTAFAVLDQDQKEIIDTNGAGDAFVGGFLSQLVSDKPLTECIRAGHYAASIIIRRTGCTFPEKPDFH
# Experimental: as §1
molecule,measurement,setting,value
Nc1ncnc2c1ncn2[C@@H]1O[C@H](COP(=O)(O)OP(=O)(O)O)[C@@H](O)[C@H]1O [ADP],GSIS in the presence of the NDPK-ADK/FABP4 complex,INS1 cells [1],potentiated
same,insulin secretion / GSIS with exogenous nucleotide,INS1 cells [1],potentiated
Nc1ncnc2c1ncn2[C@@H]1O[C@H](COP(=O)(O)OP(=O)(O)OP(=O)(O)O)[C@@H](O)[C@H]1O [ATP],increase in GSIS with addition of NDPK-ADK,INS1 cells [1],blunted
same,insulin secretion / GSIS with exogenous nucleotide,INS1 cells [1],suppressed
Nc1ncnc2c1ncn2[C@@H]1O[C@H](COP(=O)(O)OP(=O)(O)OP(O)(O)=S)[C@@H](O)[C@H]1O [ATPgS],increase in GSIS with addition of NDPK-ADK,INS1 cells [1],more pronounced
CCc1c(-c2ccccc2)c(-c2ccccc2)nn1-c1ccccc1-c1cccc(OCC(=O)O)c1 [BMS-309403],effect on suppressing NDPK-ADK-potentiated GSIS as WT recombinant FABP4,INS1 cells [1]; FABP4 mutant or FABP4 treated with inhibitor,same effect
CNc1ncnc2c1ncn2[C@H]1C[C@H](OP(=O)(O)O)[C@@H](COP(=O)(O)O)O1 [MRS2179],GSIS in the presence of the NDPK-ADK/FABP4 complex,INS1 cells [1],no effect
same,increase in GSIS with addition of NDPK-ADK,INS1 cells [1],abolished
same,ADP-stimulated increase in GSIS,INS1 cells [1]; increasing concentrations of ADP,completely inhibited
"CSc1nc(N)c2ncn([C@H]3[C@H](O)[C@H](O)[C@]4(COP(=O)(O)OP(=O)(O)O)C[C@H]34)c2n1 [MRS2365, reference compound]",extracellular calcium influx in response to glucose,INS1 cells [2],rescued
GPVVAMVWEGLNVVK [Peptide 8],binding with a-Ab (in words),CA33 (a-Ab),High affinity binding
H118N NDPK: kinase-dead H118N NDPK mutant,capacity to generate ADP,recombinant NDPK,no capacity
same,GSIS,primary mouse islets,no effect
IKPDGVQRGLVGEII [Peptide 2],binding with a-Ab (in words),CA33 (a-Ab),Low affinity binding
NDPK: recombinant human NDPK-A (Acro Biosystems),ADK activity to generate ATP,recombinant ADK,no effect
VGEIIKRFEQKGFRL [Peptide 3],binding with a-Ab (in words),CA33 (a-Ab),Low affinity binding
